Experiment [1] concerns WiDr human colon cancer. Kind of experiment: in vitro screen against WiDr colon cancer. The note with it: read-out: IC₅₀. It is filed as cell-based. From the text:
(§1) (see: Salmon, S.E. et al, Cancer Treat Rep., 1981, 65, 102; Salmon, S.E. et al, N. Engl. J. Med., 1978, 298, 1231;and Albert, DS, Cancer Chemother Pharmacol, 1981, 6, 253). The protocol employed for MTT assays are reported. (see: Mossman T.J. Immunol Methods, 1983, 65, 55).
6-(N-Aziridinyl)-7-methyl-2, 3-dihydro - 1H- pyrrolo [1, 2-ª] benzimidazole-5, 8-dione-3-acetate (1c) was screened for in vitro activity against WiDr human colon cancer.
6-(N-Aziridinyl)-7-methyl-2, 3-dihydro - 1H- pyrrolo [1, 2-ª] benzimidazole-5, 8-dione-3-carbamate (1d) was screened for in vitro activity against WiDr/S human colon cancer.

Experiment [2] relates to 110-fold doxorubicin-resistant ovarian cancer (2780/DOX). As to the kind of experiment: in vitro screen against doxorubicin-resistant ovarian cancer. It is filed as cell-based. Conditions: read-out: IC₅₀.
Excerpt: as §1
(§2) 6-(N-Aziridinyl)-7-methyl-2, 3-dihydro - 1H- pyrrolo [1, 2-a] benzimidazole-5, 8-dione-3-acetate (1c) was screened for in vitro activity against doxorubicin-sensitive ovarian cancer (2780/S) and 110-fold doxorubicin-resistant ovarian cancer (2780/DOX).
(§3) 6-(N-Aziridinyl)-7-methyl-2, 3-dihydro - 1H- pyrrolo [1, 2-ª] benzimidazole-5, 8-dione-3-carbamate (1d) was screened for in vitro activity against doxorubicin-sensitive (2780/S) and doxorubicin-resistant (2780/DOX) ovarian cancer.

In experiment [3] the test system is cisplatin-resistant (2008/R) ovarian cancers. As to the kind of experiment: in vitro screen against cisplatin-resistant ovarian cancer. It is filed as cell-based. Conditions: for IC₅₀: in vitro.
Excerpt: as §1
(§4) 6-(N-Aziridinyl)-7-methyl-2, 3-dihydro - 1H- pyrrolo [1, 2-ª] benzimidazole-5, 8-dione-3-acetate (1c) was screened for in vitro activities against cisplatin-sensitive (2008/S) and cisplatin-resistant (2008/R) ovarian cancers.
(§5) 6-(N-Aziridinyl)-7-methyl-2, 3-dihydro - 1H- pyrrolo [1, 2-a] benzimidazole-5, 8-dione-3-carbamate (1d) was screened for in vitro activity against cisplatin-sensitive (2008/S) and cisplatin-resistant (2008/R) ovarian cancers.

For experiment [4], the system named is SW480 human colon cancer. As to the kind of experiment: in vitro screen against SW480 colon cancer. It is filed as cell-based.
Excerpt: as §1
6-(N-Aziridinyl)-7-methyl-2, 3-dihydro - 1H- pyrrolo [1, 2-ª] benzimidazole-5, 8-dione-3-acetate (1c) was screened for in vitro activity against SW480 human colon cancer.
6-(N-Aziridinyl)-7-methyl-2, 3-dihydro - 1H- pyrrolo [1, 2-ª] benzimidazole-5, 8-dione-3-carbamate (1d) was screened for in vitro activity against SW480 human colon cancer.

Experiment [5] concerns doxorubicin-sensitive ovarian cancer (2780/S). As to the kind of experiment: in vitro screen against doxorubicin-sensitive ovarian cancer. Conditions: read-out: IC₅₀. It is filed as cell-based.
Excerpt: as §1, §2, §3

Experiment [6] relates to cisplatin-sensitive (2008/S) ovarian cancers. Kind of experiment: in vitro screen against cisplatin-sensitive ovarian cancer. It is filed as cell-based. Conditions: for IC₅₀: in vitro.
Excerpt: as §1, §4, §5

Experiment [7] relates to 8226/S human myeloma. As to the kind of experiment: in vitro screen against 8226/S myeloma. It is filed as cell-based. Conditions: read-out: IC₅₀.
Excerpt: as §1
6-(N-Aziridinyl)-7-methyl-2, 3-dihydro - 1H- pyrrolo [1, 2-ª] benzimidazole-5, 8-dione-3-acetate (1c) was screened for in vitro activity against 8226/S human myeloma.
6-(N-Aziridinyl)-7-methyl-2, 3-dihydro - 1H- pyrrolo [1, 2-ª] benzimidazole-5, 8-dione-3-carbamate (1d) was screened for in vitro activity against 8226/S myeloma.

Experiment [8] deals with Fresh ovarian tumors. As to the kind of experiment: clonogenic assay on fresh ovarian tumors from patients. It is filed as cell-based, human. On the procedure: as §1
Fresh ovarian tumors were collected from twelve (12) confirmed ovarian cancer patients. Azimitosene 1c was tested in vitro using the clonogenic assay described by Salmon et al, Salmon et al, and Albert et al (op cit). The IC₅₀ data (the drug concentration required to obtain 50% inhibition of tumor colony formation after 1 hour exposure to test compound) obtained from these assays are shown in Table 1.

The structures appear in SMILES notation. pIC50: −log10 of the molar value. Values after ≈ are worked out from the molar mass of the structure shown. Where two headings read alike, the source gives them in different places.

For `CO[C@@]12[C@H](COC(N)=O)C3=C(C(=O)C(C)=C(N)C3=O)N1C[C@@H]1N[C@@H]12` [MMC, mitomycin C, reference compound], the pIC50 was 7.70 in experiment [1] (WiDr (WiDr/S), in vitro); 6.70 in experiment [2] (2780/DOX, in vitro); 8.15 in experiment [4] (SW480, in vitro, read-out: IC₅₀); 7.00 in experiment [5] (2780/S, in vitro); 6.70 in experiment [7] (8226/S, in vitro). The IC₅₀ entry in experiment [3] and in experiment [6] was “not attainable” each time.
`CC1=C(N2CC2)C(=O)c2nc3n(c2C1=O)CCC3OC(N)=O` (stereo not drawn) [1d, 6-N-Aziridinyl-7-methyl-2,3-dihydro-1H-pyrrolo [1,2-a]benzimidazole-5,8-dione-3-Carbamate]: the pIC50 in experiment [1] (WiDr) is 7.00; in experiment [2], 6.70; in experiment [4] (SW480, read-out: IC₅₀) it was 7.72; in experiment [5] it was 7.00; in experiment [7], 6.85. Besides, the IC₅₀ entry in experiment [3] and in experiment [6] was “not attainable” in each case.
Turning to `CC(=O)OC1CCn2c1nc1c2C(=O)C(C)=C(N2CC2)C1=O` (stereo not drawn) [1c, 6-(N-aziridinyl)-7-methyl-2,3-dihydro-1H-pyrrolo [1,2-a]benzimidazole-5,8-dione-3-Acetate], the pIC50 is 8.22 in experiment [1] (WiDr); 7.80 in experiment [2]; 8.15 in experiment [3] (Homo sapiens, read-out: IC₅₀); 8.05 in experiment [4] (SW480, read-out: IC₅₀); 9.22 in experiment [5]; 8.15 in experiment [6] (Homo sapiens, read-out: IC₅₀). In addition, the pIC50 in experiment [7] is 7.00. The IC50 result in experiment [8] (50% inhibition of tumor colony formation after 1 hour exposure, each value is the tumor of one patient (Patient No. 1-12)) was “unachievable”; in experiment [8] (Homo sapiens, median over the fresh ovarian tumors of Table 1, read-out: median IC₅₀), 0.05 µg/mL (≈ 0.166 µM). Moreover, in experiment [8] (share of the 12 fresh ovarian tumors of Table 1), the “ovarian cancers that respond” value is listed as 91%.

Source of the values: patent EP0449649A2, “Antineoplastic quinones and methods of using same” (priority 1990, dated 1991).
